From patent US20040224987A1, “Crystalline form C of omeprazole sodium and the related process of its preparation, a crystalline form D of omeprazole sodium and the related process of its preparation, and a process for preparation of crystalline form a of omeprazole sodium” (DR. REDDY'S LABORATORIES LIMITED, priority 2003, published 2004)
Where two headings read alike, the source gives them in different places.

Columns and labels:
[1] = hygroscopicity of crystalline forms of omeprazole sodium; assay type: physicochemical; details: forms obtained by the processes of the invention
[2] = Form-A prepared according to Example 3 of WO99/00380, dried substance with one strongly bound water molecule, normal conditions; cited from earlier work
[3] = stability of crystalline forms of omeprazole sodium
[4] = cited from earlier work; for physical stability: forms disclosed in WO 99/00380

Compound	hygroscopicity [1]	physical stability [4]	further results
COc1ccc2[n-]c([S+]([O-])Cc3ncc(C)c(OC)c3C)nc2c1.[Na+] (stereo not drawn) [Form C, omeprazole sodium]	less hygroscopic than Form A	–	–
COc1ccc2[n-]c([S+]([O-])Cc3ncc(C)c(OC)c3C)nc2c1.[Na+] (stereo not drawn) [Form D, omeprazole sodium]	non-hygroscopic	–	–
COc1ccc2[n-]c([S+]([O-])Cc3ncc(C)c(OC)c3C)nc2c1.[Na+] (stereo not drawn) [Form-A, omeprazole sodium]	non-hydroscopic	–	hygroscopicity [2]: very hygroscopic; thermodynamic stability ([3]; Form-A obtained by the process of the invention, compared with prior art processes): thermodynamically more stable; stability (kind not specified) ([3]; forms obtained by the processes of the invention): stable; thermodynamic stability ([4]; Form-A produced according to Example 3 of WO 99/00380): thermodynamically unstable
COc1ccc2[n-]c([S+]([O-])Cc3ncc(C)c(OC)c3C)nc2c1.[Na+] (stereo not drawn) [Form-B, omeprazole sodium]	–	physically stable	–
COc1ccc2[n-]c([S+]([O-])Cc3ncc(C)c(OC)c3C)nc2c1.[Na+] (stereo not drawn) [Form-X, omeprazole sodium]	–	physically unstable	–
